Structures can show the parent of a compound that is named as a salt.
Each compound was assayed against recombinant human AMPK complex 1 (containing α1β1γ1) (Homo sapiens, UniProt Q13131+Q9Y478) (assay: […] (in vitro AMPK activation assay)). Conditions: read-out: % Maximum AMP Activation of human AMPK Complex 1, recombinant human AMPK complex 1 (α1β1γ1); basal activity subtracted.
Chain of recombinant human AMPK complex 1 (containing α1β1γ1) (Q13131 whole entry): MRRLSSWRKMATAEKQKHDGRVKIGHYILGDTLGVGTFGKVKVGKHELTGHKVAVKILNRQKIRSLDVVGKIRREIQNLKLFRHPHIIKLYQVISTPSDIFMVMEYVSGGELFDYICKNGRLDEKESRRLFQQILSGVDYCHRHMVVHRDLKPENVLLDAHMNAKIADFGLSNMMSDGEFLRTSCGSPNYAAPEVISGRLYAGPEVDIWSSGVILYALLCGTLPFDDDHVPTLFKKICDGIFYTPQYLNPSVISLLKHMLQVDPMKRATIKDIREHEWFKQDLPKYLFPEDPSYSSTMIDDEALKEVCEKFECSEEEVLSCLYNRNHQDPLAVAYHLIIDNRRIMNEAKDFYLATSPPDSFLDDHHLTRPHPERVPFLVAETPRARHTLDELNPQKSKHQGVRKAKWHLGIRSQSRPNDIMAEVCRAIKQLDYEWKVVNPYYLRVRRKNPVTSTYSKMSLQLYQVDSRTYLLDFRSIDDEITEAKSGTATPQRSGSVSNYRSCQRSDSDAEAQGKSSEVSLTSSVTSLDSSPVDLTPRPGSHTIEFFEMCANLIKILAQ
Chain of recombinant human AMPK complex 1 (containing α1β1γ1) (Q9Y478 whole entry): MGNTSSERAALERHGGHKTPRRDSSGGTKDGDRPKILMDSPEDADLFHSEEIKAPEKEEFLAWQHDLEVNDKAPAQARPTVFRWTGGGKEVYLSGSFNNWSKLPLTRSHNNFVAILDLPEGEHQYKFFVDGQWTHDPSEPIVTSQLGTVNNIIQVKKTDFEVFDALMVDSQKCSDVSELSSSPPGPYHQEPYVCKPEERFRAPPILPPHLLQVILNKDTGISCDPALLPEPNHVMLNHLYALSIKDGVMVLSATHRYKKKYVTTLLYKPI
Chain of recombinant human AMPK complex 1 (containing α1β1γ1) (P54619 whole entry partner): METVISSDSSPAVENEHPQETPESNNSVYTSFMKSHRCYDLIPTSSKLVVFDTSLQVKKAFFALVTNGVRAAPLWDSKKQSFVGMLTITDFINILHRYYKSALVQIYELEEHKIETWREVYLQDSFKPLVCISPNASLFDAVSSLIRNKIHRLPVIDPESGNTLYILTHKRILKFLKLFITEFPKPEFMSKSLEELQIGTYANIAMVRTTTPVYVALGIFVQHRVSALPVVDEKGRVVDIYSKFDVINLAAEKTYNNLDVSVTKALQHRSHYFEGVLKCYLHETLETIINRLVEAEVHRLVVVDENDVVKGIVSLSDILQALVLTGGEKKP
Type: biochemical
Procedure: Recombinant viruses were generated by cotransfection of AMPK/pBacPak9 clones with Baculogold baculovirus DNA (Pharmingen) in spodoptera frugiperda 21 cells according to the manufacturer's instructions. Each round of virus amplification was performed for 5 days in Grace's medium containing 10% serum. Virus that had been subjected to three rounds of amplification was used for all protein production procedures. To express the AMPK complex, sf21 cells were adapted to serum free medium (SF900 II, Invitrogen) by sequential dilution from serum containing stocks into SF900 II medium and maintained in shaker flasks at 90 rpm at 27° C. The recombinant AMPK enzyme complex was produced by triple infection, one recombinant virus for each of the subunits, in sf21 cells under serum free conditions. […] Cells were harvested by centrifugation at 10,000×g for 15 minutes after 72 hours of infection with viruses. The insect cell pellet from 2 liters of culture was resuspended in 50 ml lysis buffer (20 mM Tris-HCl, 50 mM NaCl, 50 mM NaF, 30 mM Na PPi, 0.25 M sucrose, 10 mM ZnCl2, 2 mM DTT, 0.4 mg/ml digitonin) and subjected to two cycles of freeze-thaw lysis in a dry-ice ethanol bath. Insoluble material was removed by centrifugation at 10,000×g and the supernatant was fractionated with use of polyethylene glycol (PEG).
The total in vitro AMPK activation assay volume is 50 μl in a 96-well plate. […] The reaction was initiated with addition of the enzyme. After 30-minute incubation at 30° C., the reaction was stopped by addition of 80 μl 1% H3PO4. Aliquots (100 μl) were transferred to 96-well MultiScreen plates (MAPHNOB50; Millipore Corp., Bedford, Mass., USA). The plate was washed three times with 1% H3PO4 followed by detection in a Top-count. The counts per minute from the basal activity (the reaction without activator) was subtracted from each well and the data were expressed as % maximum AMP activation followed by EC50 calculation.
Compound `COc1ccc(-c2cc3nc(Oc4ccc(C)c(C(=O)O)c4)[nH]c3cc2Cl)cc1` [Example 345, Ammonium 5-{[6-chloro-5-(4-methoxyphenyl)-1H-benzimidazol-2-yl]oxy}-2-methylbenzoate] has an Emax greater than 80%.

Same assay, conditions: recombinant human AMPK complex 1 (α1β1γ1); basal activity subtracted; read-out: % Maximum AMP Activation of human AMPK Complex 1
Compound `COC(=O)c1cc(Oc2nc3cc(-c4ccc(-c5ccccn5)cc4)c(Cl)cc3[nH]2)ccc1C` [Example 165, 5-[6-Chloro-5-(4-pyridin-2-yl-phenyl)-1H-benzoimidazol-2-yloxy]-2-methyl-benzoic acid methyl ester] has an Emax greater than 80%.
With `Cc1ccc(Oc2nc3cc(-c4ccc5c(c4)n(C)c(=O)n5C)c(Cl)cc3[nH]2)cc1C(=O)O` [Example 235, 5-(6-Chloro-1′,3′-dimethyl-2′-oxo-2′,3′-dihydro-1H,1′H-[5,5′]bibenzoimidazolyl-2-yloxy)-2-methyl-benzoic acid] the Emax was greater than 80%.
For `Cc1ccc(Oc2nc3cc(-c4cc5ccccc5o4)c(Cl)cc3[nH]2)cc1C(=O)O` [Example 356, 5-(5-Benzofuran-2-yl-6-chloro-1H-benzoimidazol-2-yloxy)-2-methyl-benzoic acid], the Emax was greater than 80%.
In the case of `COC(=O)C1(c2ccc(Oc3nc4cc(-c5ccc(-c6ccccc6)cc5)c(Cl)cc4[nH]3)cc2)CC1` [Example 6, 1-[4-(5-Biphenyl-4-yl-6-chloro-1H-benzoimidazol-2-yloxy)-phenyl]-cyclopropanecarboxylic acid methyl ester], the Emax is reported as greater than 80%.
With `Cc1cc2cc(-c3cc4nc(Oc5ccc(C)c(C(=O)O)c5)[nH]c4cc3Cl)ccc2[nH]1` [Example 261, 5-{[6-chloro-5-(2-methyl-1H-indol-5-yl)-1H-benzimidazol-2-yl]oxy}-2-methylbenzoic acid] the Emax was greater than 80%.
`Cc1ccc(Oc2nc3cc(-c4ccc5c(c4)cc(C)n5C)c(Cl)cc3[nH]2)cc1C(=O)O` [Example 289, 5-[6-Chloro-5-(1,2-dimethyl-1H-indol-5-yl)-1H-benzoimidazol-2-yloxy]-2-methyl-benzoic acid] was tested, and the Emax was greater than 80%.
With `COC(=O)c1ccc(C#Cc2cc3nc(Oc4ccc(C)c(C(=O)O)c4)[nH]c3cc2Cl)cc1` [Example 91, 5-[6-Chloro-5-(4-methoxycarbonyl-phenylethynyl)-1H-benzoimidazol-2-yloxy]-2-methyl-benzoic acid] the Emax was greater than 80%.
Compound `Cc1ccc(Oc2nc3cc(C#Cc4ccc(CCO)cc4)c(Cl)cc3[nH]2)cc1C(=O)O` [Example 69, 5-{6-chloro-5-[4-(2-hydroxy-ethyl)-phenylethynyl]-1H-benzoimidazol-2-yloxy}-2-methyl-benzoic acid] has an Emax greater than 80%.
With `Cc1ccc(Oc2nc3cc(-c4cnn(CC(C)C)c4)c(Cl)cc3[nH]2)cc1C(=O)O` [Example 159, 5-[6-Chloro-5-(1-isobutyl-1H-pyrazol-4-yl)-1H-benzoimidazol-2-yloxy]-2-methyl-benzoic acid] the Emax was greater than 80%.
In the case of `Cc1ccc(Oc2nc3cc(-c4ccc(-c5c(C)noc5C)cc4)c(Cl)cc3[nH]2)cc1C(=O)O` [Example 204, 5-({6-chloro-5-[4-(3,5-dimethylisoxazol-4-yl)phenyl]-1H-benzimidazol-2-yl}oxy)-2-methylbenzoic acid], the Emax is reported as greater than 80%.
Work on `O=C(O)c1cncc(Oc2nc3cc(-c4ccc(-c5ccccc5)cc4)c(Cl)cc3[nH]2)c1` [Example 34, 5-(5-Biphenyl-4-yl-6-chloro-1H-benzoimidazol-2-yloxy)-nicotinic acid] yielded an Emax greater than 80%.
`COC(=O)c1cc(Oc2nc3cc(C#Cc4cncn4C)c(Cl)cc3[nH]2)ccc1C` [Example 136, 5-[6-Chloro-5-(3-methyl-3H-imidazol-4-ylethynyl)-1H-benzoimidazol-2-yloxy]-2-methyl-benzoic acid methyl ester] was tested, and the Emax was greater than 80%.
In the case of `Cc1ccc(Oc2nc3cc(-c4ccc(CN(C)C)cc4)c(Cl)cc3[nH]2)cc1C(=O)O` [Example 294, {4-[2-(3-carboxy-4-methylphenoxy)-6-chloro-1H-benzimidazol-5-yl]phenyl}-N,N-dimethylmethanaminium trifluoroacetate], the Emax is reported as greater than 80%.
Compound `Cc1ccc(Oc2nc3cc(-c4ccc(-c5ccccc5)s4)c(Cl)cc3[nH]2)cc1C(=O)O` [Example 359, 5-{6-Chloro-5-(5-phenyl-thiophen-2-yl)-1H-benzoimidazol-2-yloxy}-2-methyl-benzoic acid] has an Emax greater than 80%.
For `Cc1ccc(Oc2nc3cc(C#Cc4ccc(-c5cccnc5)cc4)c(Cl)cc3[nH]2)cc1C(=O)O` [Example 70, 5-[6-Chloro-5-(4-pyridin-3-yl-phenylethynyl)-1H-benzoimidazol-2-yloxy]-2-methyl-benzoic acid], the Emax was greater than 80%.
`CC(=O)c1ccc(-c2cc3nc(Oc4ccc(C)c(C(=O)O)c4)[nH]c3cc2Cl)cc1` [Example 157, 5-{5-(4-Acetyl-phenyl)-6-chloro-1H-benzoimidazol-2-yloxy]-2-methyl-benzoic acid] gave an Emax greater than 80%.
`NC(C(=O)O)c1ccc(Oc2nc3cc(-c4ccc(-c5ccccc5)cc4)c(Cl)cc3[nH]2)cc1` (centres unmarked) [Example 18, Amino-[4-(5-biphenyl-4-yl-6-chloro-1H-benzoimidazol-2-yloxy)-phenyl]-acetic acid] gave an Emax greater than 80%.
`Cc1ccc(Oc2nc3cc(-c4ccc5c(c4)CNC5)c(Cl)cc3[nH]2)cc1C(=O)O` [Example 301, 5-[2-(3-carboxy-4-methylphenoxy)-6-chloro-1H-benzimidazol-5-yl]-2,3-dihydro-1H-isoindolium trifluoroacetate] gave an Emax greater than 80%.
In the case of `O=C(O)Cc1ccc(Oc2nc3cc(-c4ccc(-c5ccccc5)cc4)c(Cl)cc3[nH]2)cc1C(=O)O` [Example 8, 5-(5-Biphenyl-4-yl-6-chloro-1H-benzoimidazol-2-yloxy)-2-carboxymethyl-benzoic acid], the Emax is reported as greater than 80%.
`Cc1ccc(Oc2nc3cc(C#Cc4cccc(O)c4)c(Cl)cc3[nH]2)cc1C(=O)O` [Example 124, 5-[6-Chloro-5-(3-hydroxy-phenylethynyl)-1H-benzoimidazol-2-yloxy]-2-methyl-benzoic acid] gave an Emax greater than 80%.
`Cc1ccnc(-c2cc3nc(Oc4ccc(C)c(C(=O)O)c4)[nH]c3cc2Cl)c1` [Example 335, 2-(3-carboxy-4-methylphenoxy)-6-chloro-5-(4-methylpyridin-2-yl)-1H-3,1-benzimidazol-3-ium formate] was tested, and the Emax was greater than 80%.
Compound `COc1ccc(-c2cc3nc(Oc4ccc(C)c(C(=O)O)c4)[nH]c3cc2Cl)cc1OC` [Example 260, 2-(3-carboxy-4-methylphenoxy)-6-chloro-5-(3,4-dimethoxyphenyl)-1H-3,1-benzimidazol-3-ium trifluoroacetate] has an Emax greater than 80%.
Compound `COc1ccccc1C#Cc1cc2nc(Oc3ccc(C)c(C(=O)O)c3)[nH]c2cc1Cl` [Example 106, 5-[6-Chloro-5-(2-methoxy-phenylethynyl)-1H-benzoimidazol-2-yloxy]-2-methyl-benzoic acid] has an Emax greater than 80%.
Compound `Cc1ccc(Oc2nc3cc(CCc4ccccc4)c(Cl)cc3[nH]2)cc1C(=O)O` [Example 51, 5-(6-Chloro-5-phenethyl-1H-benzoimidazol-2-yloxy)-2-methyl-benzoic acid] has an Emax greater than 80%.
With `Cc1ccc(Oc2nc3cc(C#Cc4ccc(-c5nc[nH]n5)cc4)c(Cl)cc3[nH]2)cc1C(=O)O` [Example 78, 5-{6-Chloro-5-[4-(1H-[1,2,4]triazol-3-yl)-phenylethynyl]-1H-benzoimidazol-2-yloxy}-2-methyl-benzoic acid] the Emax was greater than 80%.
With `COc1ccc2cc(-c3cc4nc(Oc5cc(C)c(C)c(C(=O)O)c5)[nH]c4cc3Cl)ccc2c1` [Example 310, 5-[6-Chloro-5-(6-methoxy-naphthalen-2-yl)-1H-benzoimidazol-2-yloxy]-2,3-dimethyl-benzoic acid] the Emax was greater than 80%.
`Cc1ccc(Oc2nc3cc(C#Cc4ccc(Cl)cc4)c(Cl)cc3[nH]2)cc1C(=O)O` [Example 112, 5-[6-Chloro-5-(4-chloro-phenylethynyl)-1H-benzoimidazol-2-yloxy]-2-methyl-benzoic acid] showed an Emax greater than 80%.
`CCOC(=O)c1c(C)[nH]c2ccc(Oc3nc4cc(-c5ccc(-c6ccccc6)cc5)c(Cl)cc4[nH]3)cc12` [Example 4, 5-(5-Biphenyl-4-yl-6-chloro-1H-benzoimidazol-2-yloxy)-2-methyl-1H-indole-3-carboxylic acid ethyl ester] showed an Emax greater than 80%.
With `Cc1ccc(Oc2nc3cc(-c4ccc(-c5ccccc5)c(C)c4)c(Cl)cc3[nH]2)cc1C(=O)O` [Example 303, 5-[6-Chloro-5-(2-methyl-biphenyl-4-yl)-1H-benzoimidazol-2-yloxy]-2-methyl-benzoic acid] the Emax was greater than 80%.
For `CCCc1ccc(-c2cc3nc(Oc4ccc(C)c(C(=O)O)c4)[nH]c3cc2Cl)cc1` [Example 347, 2-(3-carboxy-4-methylphenoxy)-6-chloro-5-(4-propylphenyl)-1H-3,1-benzimidazol-3-ium trifluoroacetate], the Emax was greater than 80%.
For `O=C(O)c1ccc(Oc2nc3cc(-c4ccc(-c5ccccc5)cc4)c(Cl)cc3[nH]2)cc1Cl` [Example 39, 4-(5-Biphenyl-4-yl-6-chloro-1H-benzoimidazol-2-yloxy)-2-chloro-benzoic acid], the Emax was greater than 80%.
